The text below walks through data of US20110021531A1, “OXAZOLE DERIVATIVES USEFUL AS INHIBITORS OF FAAH” (priority 2009, published 2011).

In assay [1] the target is T1, human FAAH (Fatty Acid Amide Hydrolase) (Homo sapiens, UniProt O00519).
T1 construct: The full length FAAH was subcloned into the mammalian expression vector, pcDEF.neo
T1 sequence (O00519 1-579): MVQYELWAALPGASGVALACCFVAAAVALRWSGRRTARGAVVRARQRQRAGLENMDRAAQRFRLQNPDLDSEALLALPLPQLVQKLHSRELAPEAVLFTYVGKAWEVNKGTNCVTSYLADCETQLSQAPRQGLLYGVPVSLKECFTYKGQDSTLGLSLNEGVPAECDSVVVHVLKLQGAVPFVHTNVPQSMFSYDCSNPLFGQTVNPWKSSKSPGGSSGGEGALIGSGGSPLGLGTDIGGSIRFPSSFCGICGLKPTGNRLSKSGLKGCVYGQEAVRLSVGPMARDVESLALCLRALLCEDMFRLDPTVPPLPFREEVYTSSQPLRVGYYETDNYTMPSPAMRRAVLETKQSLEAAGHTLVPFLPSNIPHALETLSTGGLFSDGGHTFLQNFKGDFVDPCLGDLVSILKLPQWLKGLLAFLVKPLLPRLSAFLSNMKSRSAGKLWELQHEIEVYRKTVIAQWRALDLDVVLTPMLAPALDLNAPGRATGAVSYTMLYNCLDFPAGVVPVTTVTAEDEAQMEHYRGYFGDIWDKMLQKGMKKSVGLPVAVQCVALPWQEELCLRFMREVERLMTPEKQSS
Kind of assay: FAAH whole cell assay, CHO cells expressing human FAAH. Format: cell-based. The source says:
(§1) To assist in assay development stable cell lines for human, murine and rat full length FAAH were developed. Human FAAH cDNA (Accession No: NM_001441.1) was purchased from Origene (Rockville, Md.). The full length FAAH was subcloned into the mammalian expression vector, pcDEF.neo, using XbaI and EcoRI restriction sites and used for stable cell line generation.
(§2) Murine (accession number NM_010173) and Rat FAAH (accession number NM_024132) was amplified by reverse transcriptase polymerase chain reaction (RT-PCR) from brain cDNA (BD Biosciences, San Jose, Calif.) using primers 1 and 2 or primers 1 and 3 respectively (see Table). The resulting PCR product was ligated into pCR4 TOPO and DNA sequence confirmed. The full length murine FAAH was subcloned into the mammalian expression vector, pcDEFneo using either EcoRI (murine) or KpnI and EcoRI (rat) restriction sites. Chinese hamster ovary cells (CHO) were transfected following manufacturers protocol (AMAXA). Forty eight hours post transfection, cells were trypsinized and transferred to 96 well plates in Iscove's DMEM media supplemented with 2 mM Glutamine, 10% fetal calf serum, 1 mg/ml geneticin and HT Supplement (0.1 mM sodium hypoxanthine, 0.016 mM thymidine) in order to isolate single clones. Following selection in geneticin, individual clones were selected and FAAH activity was assessed using a whole cell fluorescent anandamide assay, modified from Ramarao et al (2005). Following removal of tissue culture media cells were dislodged following addition of Cellstripper (Mediatech, Inc. Manassas, Va.) and transferred to 96 well black clear bottom assay plate, centrifuged at 1,000 rpm for 3 mins and media removed and replaced with assay buffer (50 mM Iris pH8.0, 1 mM EDTA, 0.1% fatty acid free BSA). The reaction was initiated by addition of fluorescent substrate, AMC Arachidonoyl Amide (Cayman Chemical, Ann Arbor, Mich.) to 1 μM and reaction allowed to proceed for 2 hours at room temperature. Release of fluorescence was monitored in a CytoFluor Multiplate Reader. Cells expressing the highest amount of FAAH activity were selected for study with FAAH inhibitors.
(§3) (American Radiolabeled Chemicals; 1 mCi/ml) with FAAH (Life Sciences (1995), 56, 1999-2005 and Journal of Pharmacology and Experimented Therapeutics (1997), 283, 729-734), Analytical. Biochemistry (2003), 318, 270-5. In addition, routine assays were performed monitoring hydrolysis of arachidonyl-7-amino-4-methylcoumarin amide (AAMCA) by following increase in fluorescence upon release of 7-amino 4-methyl coumarin (λEX=355 nm, (λEM=460 nm). Analytical. Biochemistry (2005). 343, 143-51
(§4) Assays are performed on either cell lysate or microsome fractions prepared as described or in whole cell format employing either the fluorescent substrate AAMCA (Cayman chemical, Ann Arbor, Mich.,) or ^3H-anandmaide ([ETHANOLAMINE-1-3H]American Radiolabeled Chemicals; 1 mCi/ml). The cell lysate or microsome assay is performed in Costar black wall, clear bottom plates by adding FAAH_CF10 (whole cell, cell lysate or microsome) in assay buffer (50 mM Phosphate, pH 8.0, 1 mM EDTA, 200 mM KCl, 0.2% glycerol, 0.1% fatty acid free BSA) to each well, followed by either DMSO or compound and allowed to incubate at 22-25° C. for fifteen minutes. AAMCA substrate was used to achieve a final concentration of 1 μM and reaction allowed to proceed at room temperature for 1-3 hours. Fluorescent release as a measure of FAAH activity was monitored by reading the plate in a CytoFluor Multiplate Reader (Ex: […]). Whole cell assay is conducted with cells harvested after rinsing tissue culture flasks three times with Ca^++Mg^++ free PBS, incubating for 10 min in Enzyme free dissociation media and centrifuging for 5 minutes at 1,000 rpm in table top centrifuge. Cells are resuspended in assay buffer at desired cell number in (4×10^4 cells/assay in 96-well format; 1×10^4 cells/assay in 384-well format) and assayed as described.

In assay [2] the target is T1, human FAAH (Fatty Acid Amide Hydrolase). Nature of the assay: FAAH enzyme assay on lysate of CHO cells expressing human FAAH. Format: biochemical.
From the text: as §1
CHO cells expressing FAAH were used to prepare either crude cell lysate or microsome fractions. To harvest cells, tissue culture media was decanted, the monolayer washed three times with Ca^++Mg^++ free PBS and cells recovered after […] in enzyme free dissociation media (Millipore Corp, Billerica, Mass.). Cells were collected by centrifuging at 2000 rpm for 15 min. and the cell pellet re-suspended with 50 mM HEPES (pH 7.4) containing 1 mM EDTA and the protease inhibitors aprotinin (1 mg/ml) and leupeptin (100 μM). The suspension was sonicated at 4° C. and the cell lysate recovered after centrifuging at 12,000×g (14,600 rpm, SS34 rotor) for 20 min at 4° C. to form a crude pellet of cell debris, nuclei, peroxisomes, lysosomes, and mitochondria; the supernatant or cell lysate was used for FAAH enzyme assay. In some cases, microsomes fractions enriched in FAAH were prepared by centrifuging the cell lysate further at 27,000 rpm (100,000×g) in SW28 rotor for 50 minutes at 4° C. The pellet containing FAAH-enriched microsomes was re-suspend in 50 mM HEPES, (pH 7.4) 1 mM EDTA, and any remaining DNA sheared by passage of material through a 23 gauge needle and aliquots of enzyme were store at −80° C. prior to use.
as §3, §4
Alternatively, assays are performed using anandamide [ethanolamine 1-^3H] (specific activity of 10 Ci/mmol) diluted with cold anandamide to achieve a final assay concentration of 1 μM anandamide (˜50,000 cpm). Enzyme (CHO cell lysate, brain or liver homogenate) is incubated in assay buffer (50 mM Phosphate, pH 8.0, 1 mM EDTA, 200 mM KCl, 0.2% glycerol, 0.1% fatty acid free BSA) with inhibitor at 25° C. for 30 minutes. The reaction was terminated by addition of 2 volumes of chloroform:methanol (1:1) and mixed by vortexing. […]

Assay [3] addresses T2, rat FAAH (Fatty Acid Amide Hydrolase) (Rattus norvegicus, UniProt P97612).
T2 sequence (P97612 1-579): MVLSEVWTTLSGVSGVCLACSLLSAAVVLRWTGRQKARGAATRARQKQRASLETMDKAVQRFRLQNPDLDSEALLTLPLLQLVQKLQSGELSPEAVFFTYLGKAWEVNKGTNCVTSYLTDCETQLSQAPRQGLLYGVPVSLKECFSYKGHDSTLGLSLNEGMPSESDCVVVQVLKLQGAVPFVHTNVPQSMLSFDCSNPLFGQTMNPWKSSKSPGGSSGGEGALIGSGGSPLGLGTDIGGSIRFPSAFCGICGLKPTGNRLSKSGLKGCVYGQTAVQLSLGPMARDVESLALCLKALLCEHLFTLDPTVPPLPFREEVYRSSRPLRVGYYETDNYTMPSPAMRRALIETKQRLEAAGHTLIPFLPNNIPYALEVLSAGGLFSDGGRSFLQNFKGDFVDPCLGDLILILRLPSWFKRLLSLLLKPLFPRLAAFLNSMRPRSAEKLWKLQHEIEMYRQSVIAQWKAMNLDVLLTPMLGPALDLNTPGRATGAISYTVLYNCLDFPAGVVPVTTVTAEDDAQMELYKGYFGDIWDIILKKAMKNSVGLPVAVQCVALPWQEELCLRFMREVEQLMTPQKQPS
Kind of assay: FAAH whole cell assay, CHO cells expressing rat FAAH. Format: cell-based.
From the text: as §1, §2, §3, §4

Counter-ions that a name gives are not always drawn.

A word on the IC50: it is the concentration at which inhibition is half-maximal. A high value points to weaker potency in that assay. Consider `CC(C)(O)c1ccc(-c2nc(Cc3ccc(F)cc3)oc2Sc2ccc(Cl)cn2)cn1` [Ex 123, 2-(5-{5-[(5-Chloropyridin-2-yl)sulfanyl]-2-(4-fluorobenzyl)-1,3-oxazol-4-yl}pyridin-2-yl)propan-2-ol], for which the IC50 in assay [1] was found to be 510 nM; in assay [2], 74 nM; in assay [3], 286 nM.

As for `CC(C)(O)c1ccc(-c2nc(-c3cc(F)c(F)cc3F)oc2Sc2ccc(Cl)cn2)cn1` [Ex 58], the IC50 is 112 nM in assay [1], 37 nM in assay [2] and 74 nM in assay [3].

Regarding `CC(C)(O)c1ccc(-c2nc(-c3ccccc3)oc2Sc2ncc(Cl)cn2)cn1` [Ex 62], the IC50 in assay [1] came to 41 nM; in assay [2], 23 nM; in assay [3] it was 29 nM.

Turning to `CC(C)(O)c1ccc(-c2nc(-c3ccccn3)oc2Sc2ccc(Cl)cn2)cn1` [Ex 51, 2-(5-{5-[(5-chloropyridin-2-yl)thio]-2-pyridin-2-yl-1,3-oxazol-4-yl}pyridin-2-yl)propan-2-ol, trifluoroacetic acid salt], the IC50 in assay [1] worked out at 148 nM; in assay [2], 26 nM; in assay [3], 107 nM.

For the compound `CS(=O)(=O)c1ccc(-c2nc(-c3ccccn3)oc2Sc2ccc(Cl)cc2)cc1` [Ex 56, 2-{5-[(4-chlorophenyl)thio]-4-[4-(methylsulfonyl)phenyl]-1,3-oxazol-2-yl}pyridine], the IC50 is 114 nM in assay [1], 15 nM in assay [2] and 16 nM in assay [3].

For `CC(C)(O)c1ccc(-c2nc(-c3ccc(OC(F)(F)F)cc3)oc2Sc2ccc(Cl)cn2)cn1` [Ex 68], the values for the IC50 in assay [1], in assay [2] and in assay [3] were 100 nM, 15 nM and 83 nM, respectively.

As for `CC(C)(O)c1ccc(-c2nc(-c3ccccn3)oc2Sc2ccc(F)cn2)cn1` [Ex 125], the results for the half-maximal inhibitory concentration (IC50) in assay [1], in assay [2] and in assay [3] were 2290 nM, 93 nM and 680 nM, respectively.

Regarding `Cc1cc(F)ccc1-c1nc(-c2ccc(C(C)(C)O)nc2)c(Sc2ccc(Cl)cn2)o1` [Ex 37], the IC50 stood at 40 nM in assay [1], 13 nM in assay [2] and 15 nM in assay [3].

As for `Cc1ccc(-c2nc(-c3ccc(C(C)(C)O)nc3)c(Sc3ccc(Cl)cn3)o2)cc1` [Ex 59], the half-inhibitory concentration (IC50) in assay [1] amounted to 67 nM; in assay [2], 20 nM; in assay [3] it was 40 nM.

For `C[S+]([O-])c1ccc(-c2nc(-c3ccc(F)cc3)oc2Sc2ccc(Cl)cn2)cn1` (racemic) [Ex 108, (R)-5-Chloro-2-({2-(4-fluorophenyl)-4-[6-(methylsulfinyl)pyridin-3-yl]-1,3-oxazol-5-yl}sulfanyl)pyridine and (S)-5-Chloro-2-({2-(4-fluorophenyl)-4-[6-(methylsulfinyl)pyridin-3-yl]-1,3-oxazol-5-yl}sulfanyl)pyridine], the IC50 in assay [1] was 20 nM; in assay [2] it was 5 nM; in assay [3], 17 nM.

For the compound `CCOC(=O)c1cc(-c2nc(-c3ccc(F)cc3)oc2Sc2ccc(Cl)cn2)on1` [Ex 97, Ethyl 5-{5-[(5-chloropyridin-2-yl)sulfanyl]-2-(4-fluorophenyl)-1,3-oxazol-4-yl}isoxazole-3-carboxylate], the IC50 in assay [2] was found to be 20 nM; in assay [3], 10 nM.

Take `CC(C)(O)c1ccc(-c2nc(-c3ccccn3)oc2Sc2ncc(Cl)cn2)cn1` [Ex 131]: the half-inhibitory concentration (IC50) in assay [1] was found to be 1120 nM; in assay [2], 140 nM; in assay [3], 782 nM.

With `CC(C)(O)c1ncc(-c2nc(-c3ccc(F)cc3)oc2Sc2ccc(Cl)cn2)cn1` [Ex 74, 2-(5-{5-[(5-Chloropyridin-2-yl)sulfanyl]-2-(4-fluorophenyl)-1,3-oxazol-4-yl}pyrimidin-2-yl)propan-2-ol], the values for the IC50 in assay [1], in assay [2] and in assay [3] were 37 nM, 8 nM and 34 nM, respectively.

`CCn1cc(-c2nc(-c3ccc(C(C)(C)O)nc3)c(Sc3ccc(Cl)cc3)o2)cn1` [Ex 111, 2-(5-{5-[(4-chlorophenyl)sulfanyl]-2-(1-ethyl-1H-pyrazol-4-yl)-1,3-oxazol-4-yl)pyridin-2-yl}propan-2-ol]: the concentration for half-maximal inhibition (IC50) turned out to be 64 nM in assay [1], 11 nM in assay [2] and 24 nM in assay [3].
